Patent publication US20040116420A1 (priority 2001, published 2004)

How the values were obtained:
HSV-1 protease = target: T1, HSV-1 protease (Human herpesvirus 1, UniProt P10210); experiment: Enzymatic assay for HSV-1 protease (assembly) inhibitor, fluorescence polarization; type: biochemical; details: read-out: HSV-1 Enzyme inhibition IC50
T1 construct: 6xHis (N); made in house; host or cells: baculovirus expression system
Procedure: An enzymatic assay method for an HSV-1 protease (assembly) inhibitor
The activity of an assembly protease was determined by fluorescence polarization. Biotin-gamma-amino butyrate-[…]-DTAF was used as a fluorescent substrate in accordance with an HSV-1 release and cleavage site. […] Changes in the sizes of fluorescent substrate molecules that increased with the use of avidin as a reaction terminator were assayed by fluorescence polarization.
The test compound was dissolved in DMF, and the resultant was diluted 5-fold with an assay buffer. 6.5 μl thereof was added to wells of a 96-well plate (a U-bottomed 96-well plate, Coster) that had previously been blocked with a blocking solution (10 mM Tris-HCl (pH 8.0), 150 mM sodium chloride, 0.05% Tween 20, 1 mg/ml of BSA). The enzyme was diluted to 21.3 μg/ml with an assay buffer (1M sodium citrate, 50 mM sodium phosphate (pH 7.4), 100 mM sodium chloride, 20% glycerol, 2 mM TCEP), and 48.5 μl of the resultant was added to each well. The plate was incubated at room temperature for 30 minutes, and 10 μl of 62.5 μg/ml substrate solution was then added to each well. The plate was incubated at room temperature for 60 minutes, and 50 μl of 2 mg/ml avidin phosphate buffer solution (50 mM sodium phosphate, 100 mM sodium chloride (pH 7.4)) was added to each well. The activity was determined in comparison with a compound without protease inhibitor using a microplate reader for fluorescence polarization.
HSV-1 protease was purified from a vaculovirus that had expressed a DNA construct encoding the reading frame for HSV-1UL26. This construct had further encoded 6 histidine residues at the amino terminus of the protease. These additional histidine residues impart affinity ligands purified by nickel-nitriloacetic acid-agarose (Qiagen). The purified protease was stored as a stock solution for a 20 mM HEPES buffer (pH 8.5, containing 20% v/v glycerin). This stock solution was diluted with an assay buffer and then used in the enzyme reaction.
In accordance with the cleavage specificity of the HSV-1 protease at the “release site” of the assembled protein, a specific substrate was synthesized (Diianni et al., J. Biol. Chem. 268, 2048 (1993)). This assembly protein-release site had the sequence • HTYLQA*SEKFKMW • , and the substrate used was biotin-gamma-amino butyrate-HTYLQA*SERFRIK-DTAF. This is a standard method for peptide synthesis, for example, as in the a method described in “The Practice of Peptide Synthesis” (Bodansky and Bodansky (1984)). The product was stored as a 2.5 mg/ml stock solution in DMF. The resultant was diluted to 62.5 μg/ml with a phosphate buffer (50 mM sodium phosphate, 100 mM sodium chloride, (pH 7.4)) immediately before its use.
An assay buffer (1M sodium citrate, 50 mM sodium phosphate (pH 7.4), 100 mM sodium chloride, 20% glycerol, 2 mM TCEP) was used to dilute a stock solution for the enzyme and that for the inhibitor.

HSV-1 = experiment: Antiviral activity, HSV-1 in Vero cells, plaque method; type: cell-based; details: 90% inhibition of plaque formation
Procedure: An Assay Method for Antiviral Activity These complementary assay methods examine the capacity of a compound to inhibit the generation of new viruses and to inhibit the toxicity of the compound against the host cell. Toxicity indirectly decreases the generation of viruses. Thus, it is important to simultaneously conduct both assays in order to directly compare the results. The Vero cells were sown on a 96-well plate and then cultured overnight. The culture supernatant was removed, and 100 μl of 2% FBS-DMEM containing 50,000 plaque-forming units (hereinafter abbreviated as “pfu”) of HSV-1 was added. A viral solution was removed and 200 μl of 2% FBS-DMEM comprising a test compound was added. In this case, a substance to which 2% FBS-DMEM not comprising any test compound had been added was determined as a control. These infected cells were incubated in the presence of 5% CO2 at 37° C. for 20 hours, and the medium was once allowed to freeze at −80° C. The culture solution was dissolved, and the amount of viruses in the culture solution was assayed by the plaque method. The concentration of the test compound when it inhibited 90% of plaque formation relative to the control was determined to be EC 90.

[1] = Human alphaherpesvirus 1, 20 hours

T1 sequence (P10210 1-247): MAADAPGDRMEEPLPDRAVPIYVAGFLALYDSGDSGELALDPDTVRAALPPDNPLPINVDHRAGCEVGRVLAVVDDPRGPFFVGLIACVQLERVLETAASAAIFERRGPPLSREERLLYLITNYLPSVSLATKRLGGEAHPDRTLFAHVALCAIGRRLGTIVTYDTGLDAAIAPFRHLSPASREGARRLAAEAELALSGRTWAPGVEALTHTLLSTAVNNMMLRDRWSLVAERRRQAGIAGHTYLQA

SMILES	IC50 (HSV-1 protease) [µM]	EC90 (HSV-1; [1]) [µM]	EC90 (HSV-1; 20 hours) [µM]
Cc1c(NC(=O)OC(C)(C)C)ccc2nc(NC3(C(=O)N(C)CCc4ccncc4)CCCC3)oc(=O)c12 [Compound No.128, (5-Methyl-2-{1-[methyl-(2-pyridin-4-yl-ethyl)-carbamoyl]-cyclopentylamino}-4-oxo-4H-benzo[d][1,3]oxazin-6-yl)-carbamic acid tert-butyl ester]	0.4	10.1	
Cc1c(NC(=O)CCNC(=O)OC(C)(C)C)ccc2nc(NCC(=O)N(C)CCc3ccccn3)oc(=O)c12 [Compound No.228, {2-[5-Methyl-2-({[methyl-(2-pyridin-2-yl-ethyl)-carbamoyl]-methyl}-amino)-4-oxo-4H-benzo[d][1,3]oxazin-6-ylcarbamoyl]-ethyl}-carbamic acid tert-butyl ester]	0.7	> 20	
Cc1c(NC(=O)CCNC(=O)c2cccs2)ccc2nc(N[C@@H](C)C(=O)N(C)CCc3ccccn3)oc(=O)c12 [Compound No.215, Thiophene-2-carboxylic acid [2-(5-methyl-2-{1S-[methyl-(2-pyridin-2-yl-ethyl)-carbamoyl]-ethylamino}-4-oxo-4H-benzo[d][1,3]oxazin-6-ylcarbamoyl)-ethyl]-amide]	3.2	> 12.5	
Cc1c(NC(=O)OC(C)(C)C)ccc2nc(NC3(C(=O)N(C)CCc4ccncc4)CC3)oc(=O)c12 [Compound No.127, (5-Methyl-2-{1-[methyl-(2-pyridin-4-yl-ethyl)-carbamoyl]-cyclopropylamino}-4-oxo-4H-benzo[d][1,3]oxazin-6-yl)-carbamic acid tert-butyl ester]	1.8	> 12.5	
CCC(CC)C(=O)Nc1ccc2nc(NC(C)(C)C(=O)N(C)CCc3ccccn3)oc(=O)c2c1C [Compound No.197, 2-Ethyl-N-(5-methyl-2-{1-methyl-1-[methyl-(2-pyridin-2-yl-ethyl)-carbamoyl]-ethylamino}-4-oxo-4H-benzo[d][1,3]oxazin-6-yl)-butylamide]	7.2		≥ 12.5
Cc1c(NC(=O)CCCNC(=O)OC(C)(C)C)ccc2nc(N[C@@H](C)C(=O)N(C)CCc3ccccn3)oc(=O)c12 [Compound No.207, [3-(5-Methyl-2-{1S-[methyl-(2-pyridin-2-yl-ethyl)-carbamoyl]-ethylamino}-4-oxo-4H-benzo[d][1,3]oxazin-6-ylcarbamoyl)-propyl]-carbamic acid tert-butyl ester]	1.1	> 12.5	
CCCCc1ccc(C(=O)NCCC(=O)Nc2ccc3nc(NC(C)(C)C(=O)N(C)CCc4ccccn4)oc(=O)c3c2C)cc1 [Compound No.211, 4-Butyl-N-[2-(5-methyl-2-{1-methyl-1-[methyl-(2-pyridin-2-yl-ethyl)-carbamoyl]-ethylamino}-4-oxo-4H-benzo[d][1,3]oxazin-6-ylcarbamoyl)-ethyl]-benzamide]	0.7	> 12.5	
Cc1c(NC(=O)OC(C)(C)C)ccc2nc(NC3(C(=O)N(C)Cc4cccnc4)CC3)oc(=O)c12 [Compound No.118, {5-Methyl-2-[1-(methyl-pyridin-3-ylmethyl-carbamoyl)-cyclopropylamino]-4-oxo-4H-benzo[d][1,3]oxazin-6-yl}-carbamic acid tert-butyl ester]	2.3	> 12.5	
Cc1c(NC(=O)CCNC(=O)OCc2ccccc2)ccc2nc(N[C@@H](C)C(=O)N(C)CCc3ccccn3)oc(=O)c12 [Compound No.206, [2-(5-Methyl-2-{1S-[methyl-(2-pyridin-2-yl-ethyl)-carbamoyl]-ethylamino}-4-oxo-4H-benzo[d][1,3]oxazin-6-ylcarbamoyl)-ethyl]-carbamic acid benzyl ester]	1.1	> 12.5	
Cc1c(NC(=O)OC(C)(C)C)ccc2nc(NCCC(=O)N(C)CCc3ccccn3)oc(=O)c12 [Compound No.133, (5-Methyl-2-{2-[methyl-(2-pyridin-2-yl-ethyl)-carbamoyl]-ethylamino}-4-oxo-4H-benzo[d][1,3]oxazin-6-yl)-carbamic acid tert-butyl ester]	0.9	> 20	
Cc1c(NC(=O)OC(C)(C)C)ccc2nc(NC3(C(=O)N(C)CCc4cccnc4)CC3)oc(=O)c12 [Compound No.125, (5-Methyl-2-{1-[methyl-(2-pyridin-3-yl-ethyl)-carbamoyl]-cyclopropylamino}-4-oxo-4H-benzo[d][1,3]oxazin-6-yl)-carbamic acid tert-butyl ester]	2.1	> 12.5	
Cc1c(NC(=O)c2cccs2)ccc2nc(N[C@@H](C)C(=O)N(C)CCc3ccccn3)oc(=O)c12 [Compound No.135, Thiophene-2-carboxylic acid (5-methyl-2-{1S-[methyl-(2-pyridin-2-yl-ethyl)-carbamoyl]-ethylamino}-4-oxo-4H-benzo[d][1,3]oxazin-6-yl)-amide]	1.3	> 12.5	
Cc1c(NC(=O)CCNC(=O)c2ccc(C(F)(F)F)cc2)ccc2nc(N[C@@H](C)C(=O)N(C)CCc3ccccn3)oc(=O)c12 [Compound No.216, N-[2-(5-Methyl-2-{1S-[methyl-(2-pyridin-2-yl-ethyl)-carbamoyl]-ethylamino}-4-oxo-4H-benzo[d][1,3]oxazin-6-ylcarbamoyl)-ethyl]-4-trifluoromethyl-benzamide]	3	> 12.5	
Cc1c(NC(=O)OC(C)(C)C)ccc2nc(NC(C)(C)C(=O)N(C)CCc3ccccc3)oc(=O)c12 [compound 229, {5-Methyl-2-[1-methyl-1-(methyl-phenethyl-carbamoyl)-ethylamino]-4-oxo-4H-benzo[d][1,3]oxazin-6-yl}-carbamic acid tert-butyl ester, reference compound]	12.2	6.6	
Cc1c(NC(=O)CCNC(=O)OC(C)(C)C)ccc2nc(N[C@H](C)C(=O)N(C)CCc3ccccn3)oc(=O)c12 [Compound No.227, [2-(5-Methyl-2-{1R-[methyl-(2-pyridin-2-yl-ethyl)-carbamoyl]-ethylamino}-4-oxo-4H-benzo[d][1,3]oxazin-6-ylcarbamoyl)-ethyl]-carbamic acid tert-butyl ester]	2.4	> 20	
Cc1c(NC(=O)CCCNC(=O)c2cccs2)ccc2nc(NC(C)(C)C(=O)N(C)CCc3ccccn3)oc(=O)c12 [Compound No.212, Thiophene-2-carboxylic acid [3-(5-methyl-2-{1-methyl-1-[methyl-(2-pyridin-2-yl-ethyl)-carbamoyl]-ethylamino}-4-oxo-4H-benzo[d][1,3]oxazin-6-ylcarbamoyl)-propyl]-amide]	0.3	> 12.5	
Cc1c(NC(=O)CCNC(=O)OC(C)(C)C)ccc2nc(N(C)CC(=O)N(C)CCc3ccccn3)oc(=O)c12 [Compound No.226, {2-[5-methyl-2-(methyl-{[methyl-(2-pyridin-2-yl-ethyl)-carbamoyl]-methyl}-amino)-4-oxo-4H-benzo[d][1,3]oxazin-6-ylcarbamoyl]-ethyl}-carbamic Acid Tert-Butyl Ester]	1	> 20	
CCCCc1ccc(C(=O)NCCCC(=O)Nc2ccc3nc(N[C@@H](C)C(=O)N(C)CCc4ccccn4)oc(=O)c3c2C)cc1 [Compound No.220, 4-Butyl-N-[3-(5-methyl-2-{1S-[methyl-(2-pyridin-2-yl-ethyl)-carbamoyl]-ethylamino}-4-oxo-4H-benzo [d][1,3]oxazin-6-ylcarbamoyl)-propyl]-benzamide]	0.5	> 12.5	
